Test results: patent publication EP0597303A2, “Cephalosporin derivatives” (priority 1992, dated 1994)
Structures can show the parent of a compound that is named as a salt. Where two headings read alike, the source gives them in different places.

What was measured:
Assay in all cases: MIC, Agar (Mueller Hinton) Dilution Method
Format in all cases: cell-based
[1] = tested on: E. coli 1527E; conditions: Escherichia coli, Gram Negative
Description: (§1) The in vitro activity of the compounds of formula I of the present invention as measured by the Minimum Inhibitory Concentration (MIC) in micrograms/ml utilizing the Agar (Mueller Hinton) Dilution Method against a variety of Gram-positive and Gram-negative organisms, is set forth in Table 1.

[2] = tested on: Ps. aeruginosa 765; conditions: Pseudomonas aeruginosa, Gram Negative
Description: as §1

[3] = tested on: E. coli 2722B; conditions: Escherichia coli, Gram Negative
Description: as §1

[4] = tested on: E. coli 2008 E; conditions: Escherichia coli
Description: as §1

[5] = tested on: E. coli DC-0; conditions: Escherichia coli, DC0, Gram Negative
Description: as §1

[6] = tested on: Staph. aureus 67; conditions: Staphylococcus aureus
Description: as §1

[7] = tested on: E. coli DC-2; conditions: Escherichia coli, DC2, Gram Negative
Description: as §1

[8] = tested on: Micrococcus luteus PCI
Description: as §1

[9] = tested on: Escherichia coli 257; conditions: Gram Negative
Description: as §1

[10] = tested on: Staph. aureus 95; conditions: Staphylococcus aureus
Description: as §1

[11] = tested on: Enterobacter cloacae P99
Description: as §1

[12] = tested on: Ps. aeruginosa 56-1B; conditions: Pseudomonas aeruginosa, 561B
Description: as §1

[13] = tested on: E. coli 1894 E; conditions: Escherichia coli
Description: as §1

[14] = tested on: Prov. rettgeri ATCC 9250; conditions: Providencia rettgeri, ATCC9250, Gram Negative
Description: as §1

[15] = tested on: Staph. aureus 753; conditions: Staphylococcus aureus; Staph. aureus 753; methicillin-resistant; Gram Positive and Others; read-out: MIC
Description: as §1

[16] = tested on: Ps. aeruginosa 56M; conditions: Pseudomonas aeruginosa, Gram Negative
Description: as §1

[17] = tested on: Candida albicans 155; conditions: Gram Positive and Others
Description: as §1

[18] = tested on: Bacillus megaterium 164; conditions: Priestia megaterium
Description: as §1

[19] = tested on: Klebsiella pneumoniae A; conditions: Gram Negative
Description: as §1

[20] = tested on: Prot. mirabilis 90; conditions: Proteus mirabilis
Description: as §1

[21] = tested on: Staphylococcus aureus Smith; conditions: Staphylococcus aureus Smith; Gram Positive and Others; read-out: MIC
Description: as §1

[22] = tested on: Staph. aureus 82; conditions: Staphylococcus aureus
Description: as §1

[23] = tested on: Bacillus subtilis 558
Description: as §1

[24] = tested on: E. coli 1573E; conditions: Escherichia coli
Description: as §1

[25] = tested on: Staph. aureus 1059B; conditions: Staphylococcus aureus
Description: as §1

[26] = tested on: Ps. aeruginosa 18SH; conditions: Pseudomonas aeruginosa, constitutive ß-lactamase producer, Gram Negative
Description: as §1

[27] = tested on: Staph. aureus ATCC 29213; conditions: Staphylococcus aureus, ATCC29213; Staph. aureus ATCC 29213; Gram Positive and Others; read-out: MIC
Description: as §1

[28] = tested on: E. coli 2721B; conditions: Escherichia coli; E. coli 2721B; Gram Negative; read-out: MIC
Description: as §1

[29] = tested on: Xan. maltophilia 2897B; conditions: Stenotrophomonas maltophilia, Gram Negative
Description: as §1

[30] = tested on: Staph. aureus ATCC 25923; conditions: Staphylococcus aureus, ATCC25923, Gram Positive and Others
Description: as §1

[31] = tested on: Str. pneumoniae N82-012-MC; conditions: Streptococcus pneumoniae, N82012MC
Description: as §1

[32] = tested on: Staph. aureus Evans; conditions: Staphylococcus aureus
Description: as §1

[33] = tested on: Ser. marcescens 1071; conditions: Serratia marcescens
Description: as §1

[34] = tested on: Staph. aureus 3037B; conditions: Staphylococcus aureus; Staph. aureus 3037B; Gram Positive and Others; read-out: MIC
Description: as §1

[35] = tested on: Prot. mirabilis 620A; conditions: Proteus mirabilis
Description: as §1

[36] = tested on: Prot. vulgaris 100; conditions: Proteus vulgaris, Gram Negative
Description: as §1

[37] = tested on: E. coli 1269B; conditions: Escherichia coli, Gram Negative
Description: as §1

[38] = tested on: Ps. cepacia 1973 B; conditions: Burkholderia cepacia, Gram Negative
Description: as §1

[39] = tested on: Ps. aeruginosa B; conditions: Pseudomonas aeruginosa, Gram Negative
Description: as §1

[40] = E. coli 2008 E, Gram Negative, read-out: MIC
[41] = Staph. aureus 67, methicillin-resistant, Gram Positive and Others, read-out: MIC
[42] = Micrococcus luteus PCI, Gram Positive and Others, read-out: MIC
[43] = Staph. aureus 95, Gram Positive and Others, read-out: MIC
[44] = Ps. aeruginosa 56-1B, Gram Negative, read-out: MIC
[45] = Bacillus megaterium 164, Gram Positive and Others, read-out: MIC
[46] = Prot. mirabilis 90, Gram Negative, read-out: MIC
[47] = Staph. aureus 82, Gram Positive and Others, read-out: MIC
[48] = Staph. aureus 1059B, Gram Positive and Others, read-out: MIC
[49] = Str. pneumoniae N82-012-MC, Gram Positive and Others, read-out: MIC
[50] = Ser. marcescens 1071, Gram Negative, read-out: MIC
[51] = E. coli 1894 E, Gram Negative, read-out: MIC
[52] = E. coli 1573E, Gram Negative, read-out: MIC
[53] = Prot. mirabilis 620A, Gram Negative, read-out: MIC

Row | SMILES | MIC [1] [µg/mL] | MIC [2] [µg/mL] | MIC [3] [µg/mL] | MIC [5] [µg/mL] | MIC [7] [µg/mL] | MIC [9] [µg/mL] | MIC [11] [µg/mL] | MIC [14] [µg/mL] | MIC [15] [µg/mL] | MIC [16] [µg/mL] | MIC [17] [µg/mL] | MIC [19] [µg/mL] | MIC [21] [µg/mL] | MIC [26] [µg/mL] | MIC [27] [µg/mL] | MIC [28] [µg/mL] | MIC [29] [µg/mL] | MIC [30] [µg/mL] | MIC [34] [µg/mL] | MIC [36] [µg/mL] | also measured
1 | O=C(Cc1cccs1)N[C@@H]1C(=O)N2C(C(=O)O)=C(COC(=O)N3CCN(c4c(F)cc5c(=O)c(C(=O)O)cn(C6CC6)c5c4F)CC3)CS[C@H]12 [Formula Ia, [6R,7R]-3-[[[[4-(3-Carboxy-1-cyclopropyl-6,8-difluoro-1,4-dihydro-4-oxo-7-quinolinyl)-1-piperazinyl]carbonyl]-oxy]-methyl]-8-oxo-7-[(2-thienylacetyl)amino]-5-thia-1-azabicyclo-[4.2.0]oct-2-ene-2-carboxylic acid] | ≤ 0.0156 | 2 | ≤ 0.0156 | 2 | 0.25 | 0.0625 | ≤ 0.0156 | 0.25 | 0.5 | 0.25 | > 128 | 0.25 | 0.25 | 1 | 0.5 | 0.0313 | 1 | 0.25 | 1 | 0.125 | MIC [4, 40]: 0.0313 µg/mL; MIC [6, 41]: 1 µg/mL; MIC [8, 42]: ≤ 0.0156 µg/mL; MIC [10, 43]: 0.5 µg/mL; MIC [12, 44]: 0.25 µg/mL; MIC ([13]; 1894E): 0.0625 µg/mL; MIC [18, 45]: 0.125 µg/mL; MIC [20, 46]: 0.5 µg/mL; MIC [22, 47]: 0.125 µg/mL; MIC ([23]; Bacillus subtilis 558, Gram Positive and Others, read-out: MIC): 0.0313 µg/mL; MIC ([24]; 1573E): 0.0625 µg/mL; MIC [25, 48]: 0.25 µg/mL; MIC [31, 49]: 0.0313 µg/mL; MIC ([32]; Staph. aureus Evans, Gram Positive and Others, read-out: MIC): 0.5 µg/mL; MIC [33, 50]: 0.125 µg/mL; MIC ([35]; 620A): 0.0625 µg/mL; MIC [37]: 0.0313 µg/mL; MIC [38]: 4 µg/mL; MIC [39]: 0.5 µg/mL
2 | N#CCC(=O)N[C@@H]1C(=O)N2C(C(=O)O)=C(COC(=O)NC3CCN(c4c(F)cc5c(=O)c(C(=O)O)cn(C6CC6)c5c4F)C3)CS[C@H]12 (stereo partly drawn) [Formula Ib, [6R,7R]-3-[[[[[1-(3-Carboxy-1-cyclopropyl-6,8-difluoro-1,4-dihydro-4-oxo-7-quinolinyl-3-[R,S]-pyrrolidinyl]-amino]carbonyl]oxy]methyl]-7-[(cyanoacetyl)amino]-8-oxo-5-thia-1-azabicyclo[4.2.0]oct-2-ene-2-carboxyiic acid monosodium salt] | 0.0625 | 1 | ≤ 0.0156 | 1 | 0.25 | 0.125 | 0.0313 | 0.25 | 0.25 | 0.25 | > 128 | 0.25 | 0.25 | 0.5 | 0.25 | 0.0625 | 0.25 | 0.25 | 0.25 | 0.25 | MIC [4, 40]: 0.0625 µg/mL; MIC [6, 41]: 0.25 µg/mL; MIC ([8]; Micrococcus luteus): 0.125 µg/mL; MIC [10, 43]: 0.25 µg/mL; MIC [12, 44]: 0.5 µg/mL; MIC [13, 51]: 0.0625 µg/mL; MIC [18, 45]: 0.0625 µg/mL; MIC [20, 46]: 1 µg/mL; MIC [22]; 82: 0.125 µg/mL; MIC ([23]; Bacillus subtilis, 558): 0.125 µg/mL; MIC [24, 52]: 0.0625 µg/mL; MIC [25, 48]: 0.25 µg/mL; MIC [31, 49]: 0.5 µg/mL; MIC [32]: 0.125 µg/mL; MIC [33, 50]: 0.25 µg/mL; MIC [35, 53]: 0.25 µg/mL; MIC [37]: 0.0625 µg/mL; MIC [38]: 2 µg/mL; MIC [39]: 0.25 µg/mL
3 | N#CCC(=O)N[C@@H]1C(=O)N2C(C(=O)O)=C(COC(=O)N[C@H]3CCN(c4c(F)cc5c(=O)c(C(=O)O)cn(C6CC6)c5c4F)C3)CS[C@H]12 [Formula Iba, [6R-[3(S^*), 6 alpha, 7 beta]]-3-[[[[[1-(3-Carboxy-1-cyclopropyl-6,8-difluoro-1,4-dihydro-4-oxo-7-quinolinyl-3-pyrrolidinyl]-amino]carbonyl]oxy]methyl]-7-[(cyanoacetyl)amino]-8-oxo-5-thia 1-azabicyclo[4.2.0]oct-2-ene-2-carboxylic acid monosodium salt] | ≤ 0.0156 | 0.5 | ≤ 0.0156 | 0.5 | 0.0625 | 0.0313 | ≤ 0.0156 | 0.0625 | 0.0625 | 0.0625 | > 128 | 0.0625 | 0.0625 | 0.25 | 0.0625 | ≤ 0.0156 | 0.25 | 0.0625 | 0.0625 | 0.0625 | MIC ([4]; 2008E): 0.0313 µg/mL; MIC [6]; 67: 0.125 µg/mL; MIC [8, 42]: 0.0625 µg/mL; MIC [10]; 95: 0.0313 µg/mL; MIC [12]: 0.125 µg/mL; MIC [13, 51]: ≤ 0.0156 µg/mL; MIC [18]; 164: 0.0313 µg/mL; MIC [20]; 90: 0.125 µg/mL; MIC [22, 47]: 0.0625 µg/mL; MIC ([23]; Bacillus subtilis, 558): 0.0313 µg/mL; MIC [24, 52]: ≤ 0.0156 µg/mL; MIC ([25]; 1059B): 0.0313 µg/mL; MIC [31]: 0.125 µg/mL; MIC [32]: 0.0313 µg/mL; MIC [33]; 1071: 0.0313 µg/mL; MIC [35, 53]: 0.0625 µg/mL; MIC [37]: ≤ 0.0156 µg/mL; MIC [38]: 4 µg/mL; MIC [39]: 0.25 µg/mL
